20 compounds from patent US10858365B2, “Triazolo-pyrimidine compounds and uses thereof” (Dizal (Jiangsu) Pharmaceutical Co., Ltd., priority 2018, dated 2020) can be followed below.

Holding throughout (format): cell-based
One assay has as its target hA2a (Homo sapiens (Human), UniProt P29274). In words: cAMP inhibition assay in hA2a/CHO cells. As to conditions: adenosine stimulation, read-out: cAMP & FLIPR IC50 (nM) hA2a. The method, then: (§1) hA2a/CHO, hA2b/CHO and mA2a/CHO (Genscript) were plated at 5×10^3 cells/well into 384-well polystyrene plates at the day of experiment. Compounds were pre-incubated with cells for 30 min at 37° C., 5% CO2. Then […] adenosine was added to the cells and incubated for 30 min at 37° C., 5% CO2. Detection reagent (CISBIO) was added and the plates were incubated for 60 min at room temperature. The signal was captured by Envision.
FLIPR™ and cAMP inhibition activities of exemplary compounds in different adenosine receptor over-expressing cell lines are shown in Table 4 below.

Another assay has as its target hA2b (Homo sapiens (Human), UniProt P29275). In words: cAMP inhibition assay in hA2b/CHO cells. The following applies: adenosine stimulation, read-out: cAMP & FLIPR IC50 (nM) hA2b. The procedure:
as §1

For the next assay, the target named is mA2a (Mus musculus (Mouse), UniProt Q60613). Put plainly: cAMP inhibition assay in mA2a/CHO cells. As to conditions: adenosine stimulation, read-out: cAMP & FLIPR IC50 (nM) mA2a. The procedure:
as §1

The next assay has as its target hA1 (Homo sapiens (Human), UniProt P30542). Put plainly: FLIPR inhibition assay in hADORA1/CHO (hA1 expressing) cells. The following applies: hADORA1/CHO cells, FLIPR calcium, adenosine stimulation; read-out: cAMP & FLIPR IC50 (nM) hA1. The procedure:
hADORA1/CHO (hA1 expressing) cells (Genscript) were plated at 1×10^4 cells/well into 384-well polystyrene plates one day before starting the experiment. On the day of experiment, the supernatant was discard and replaced with 40 µL of dye (FLIPR calcium 5 Assay Kit) per well and the plates were incubated for 60 mins at 37° C. plus 5% CO2. Then testing compounds were added at different concentrations for FLIPR™ inhibition assay. After a 400 s incubation with compound, […] adenosine was added into the cells, and the signal was captured by FLIPR.

Sequence of hA1 (P30542 whole entry): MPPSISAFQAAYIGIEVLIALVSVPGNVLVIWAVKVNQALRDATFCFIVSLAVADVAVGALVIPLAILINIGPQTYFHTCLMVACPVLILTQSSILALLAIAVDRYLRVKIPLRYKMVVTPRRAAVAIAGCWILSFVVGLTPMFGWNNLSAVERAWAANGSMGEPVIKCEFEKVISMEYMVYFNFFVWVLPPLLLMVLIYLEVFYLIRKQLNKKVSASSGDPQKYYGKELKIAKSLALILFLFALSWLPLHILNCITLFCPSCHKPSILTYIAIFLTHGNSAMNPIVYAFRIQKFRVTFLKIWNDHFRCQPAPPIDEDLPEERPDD
Sequence of mA2a (Q60613 whole entry): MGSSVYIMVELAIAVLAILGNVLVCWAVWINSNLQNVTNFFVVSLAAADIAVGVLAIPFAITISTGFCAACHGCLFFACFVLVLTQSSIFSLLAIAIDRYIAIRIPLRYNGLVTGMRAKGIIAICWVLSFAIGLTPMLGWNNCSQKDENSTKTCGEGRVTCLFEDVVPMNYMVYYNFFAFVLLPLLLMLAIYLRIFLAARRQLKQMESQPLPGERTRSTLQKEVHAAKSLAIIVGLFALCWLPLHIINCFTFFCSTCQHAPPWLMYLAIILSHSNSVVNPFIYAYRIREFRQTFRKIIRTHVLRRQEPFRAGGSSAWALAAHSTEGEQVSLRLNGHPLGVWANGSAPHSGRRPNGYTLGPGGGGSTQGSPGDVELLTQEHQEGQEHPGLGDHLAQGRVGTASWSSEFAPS
Sequence of hA2a (P29274 whole entry): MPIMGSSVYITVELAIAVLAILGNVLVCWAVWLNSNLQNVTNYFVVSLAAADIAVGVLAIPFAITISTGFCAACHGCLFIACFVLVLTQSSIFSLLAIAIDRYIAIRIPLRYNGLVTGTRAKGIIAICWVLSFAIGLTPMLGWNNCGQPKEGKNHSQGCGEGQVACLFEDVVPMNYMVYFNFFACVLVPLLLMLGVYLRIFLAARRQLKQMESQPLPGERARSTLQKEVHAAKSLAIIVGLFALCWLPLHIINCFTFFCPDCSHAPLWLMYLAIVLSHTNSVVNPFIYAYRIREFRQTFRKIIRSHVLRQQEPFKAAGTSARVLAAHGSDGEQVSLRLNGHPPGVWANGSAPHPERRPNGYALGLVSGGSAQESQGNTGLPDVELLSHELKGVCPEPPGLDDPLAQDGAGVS
Sequence of hA2b (P29275 whole entry): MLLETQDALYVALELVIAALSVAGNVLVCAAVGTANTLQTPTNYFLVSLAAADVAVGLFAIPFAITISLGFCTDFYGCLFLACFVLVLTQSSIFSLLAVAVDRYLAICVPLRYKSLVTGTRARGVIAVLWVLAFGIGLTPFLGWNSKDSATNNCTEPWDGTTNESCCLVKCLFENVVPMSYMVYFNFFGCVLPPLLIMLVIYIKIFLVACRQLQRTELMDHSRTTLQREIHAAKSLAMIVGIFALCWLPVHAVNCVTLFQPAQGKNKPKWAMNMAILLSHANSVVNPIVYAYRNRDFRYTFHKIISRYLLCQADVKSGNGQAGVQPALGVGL

The term IC50 denotes the concentration that inhibits the measured activity by half. On to `Nc1nc(-c2ccc(F)cc2)c(-c2ccnc(C(F)(F)F)c2)c2nc(Cc3c(F)cccc3F)nn12` [Example 4, 2-[(2,6-difluorophenyl)methyl]-7-(4-fluorophenyl)-8-[2-(trifluoromethyl)pyridin-4-yl]-[1,2,4]triazolo[1,5-c]pyrimidin-5-amine], for which the IC50 on hA2a worked out at 52 nM; at hA2b it was 254 nM; at mA2a, 24 nM; on hA1, 511 nM.
For `Cc1cc(-c2c(-c3ccc(F)cc3)nc(N)n3nc(Cc4cccc(Cl)n4)nc23)ccn1` [Example 15, 2-[(6-chloropyridin-2-yl)methyl]-7-(4-fluorophenyl)-8-(2-methylpyridin-4-yl)-[1,2,4]triazolo[1,5-c]pyrimidin-5-amine], in that order: 46 nM, 582 nM, 88 nM and 27 nM.
With `Cc1nccc(-c2c(-c3ccc(F)cc3)nc(N)n3nc(Cc4c(F)cccc4F)nc23)c1C` [Example 16, 2-(2,6-difluorobenzyl)-8-(2,3-dimethylpyridin-4-yl)-7-(4-fluorophenyl)-[1,2,4]triazolo[1,5-c] pyrimidin-5-amine], the half-maximal inhibitory concentration (IC50) at hA2a amounted to 174 nM; on hA2b, 125 nM; at mA2a, 758 nM; at hA1, 205 nM.
With `Cc1cc(-c2c(-c3ccc(F)cc3)nc(N)n3nc(Cc4cccc(N(C)C)n4)nc23)ccn1` [Example 17, 2-((6-(dimethylamino)pyridin-2-yl)methyl)-7-(4-fluorophenyl)-8-(2-methylpyridin-4-yl)-[1,2,4]triazolo[1,5-f]pyrimidin-5-amine], the IC50 on hA2a worked out at 43 nM; on hA2b it was 4790 nM; on mA2a, 51 nM; at hA1, 22 nM.
For `Nc1nc(-c2ccc(F)cc2)c(-c2ccc(=O)n(C3CCOC3)c2)c2nc(Cc3c(F)cccc3F)nn12` (centres unmarked) [Example 23, 5-(5-amino-2-(2,6-difluorobenzyl)-7-(4-fluorophenyl)-[1,2,4]triazolo[1,5-c]pyrimidin-8-yl)-1-(tetrahydrofuran-3-yl)pyridin-2(1H)-one] the same measures were 7.7 nM, 2060 nM, 2.9 nM and 26 nM.
For the compound `Cc1ccc(-c2nc(N)n3nc(Cc4c(F)cccc4F)nc3c2-c2ccc(=O)n(C)c2)cn1` [Example 24, 5-[5-amino-2-[(2,6-difluorophenyl)methyl]-7-(6-methylpyridin-3-yl)-[1,2,4]triazolo[1,5-c]pyrimidin-8-yl]-1-methyl-1,2-dihydropyridin-2-one], the IC50 stood at 58 nM at hA2a, 631 nM on hA2b, 162 nM on mA2a and 12 nM on hA1.
Take `Cc1cnc(-c2nc(N)n3nc(Cc4c(F)cccc4F)nc3c2-c2ccc(=O)n(C)c2)o1` [Example 26, 5-(5-amino-2-(2,6-difluorobenzyl)-7-(5-methyloxazol-2-yl)-[l,2,4]triazolo[l,5-c]pyrimidin-8-yl)-1-methylpyridin-2(1H)-one]: the IC50 came to 15 nM at hA2a, 457 nM on hA2b, 34 nM on mA2a and 33 nM at hA1.
For `Cc1coc(-c2nc(N)n3nc(Cc4c(F)cccc4F)nc3c2-c2ccc(=O)n(C)c2)n1` [Example 27, 5-(5-amino-2-(2,6-difluorobenzyl)-7-(4-methyloxazol-2-yl)-[1,2,4]triazolo[1,5-c]pyrimidin-8-yl)-1-methylpyridin-2(1H)-one], in that order: 139 nM, 10000 nM, 245 nM and 112 nM.
In the case of `Cn1cc(-c2c(Cl)nc(N)n3nc(Cc4c(F)cccc4F)nc23)ccc1=O` [Example 28, 5-(5-amino-7-chloro-2-(2,6-difluorobenzyl)-[1,2,4]triazolo[1,5-c]pyrimidin-8-yl)-1-methylpyridin-2(1H)-one], the 50% inhibitory concentration (IC50) came out at 158 nM at hA2a, 6420 nM on hA2b, 217 nM at mA2a and 1150 nM on hA1.
For `Cc1cc(-c2c(-c3ccc(F)cc3)nc(N)n3nc(Cc4ncccc4F)nc23)cn(C)c1=O` [Example 29, 5-(5-amino-7-(4-fluorophenyl)-2-((3-fluoropyridin-2-yl)methyl)-[1,2,4]triazolo[1,5-c]pyrimidin-8-yl)-l,3-dimethylpyridin-2(1H)-one] the same measures were 3.8 nM, 91 nM, 5.1 nM and 4.3 nM.
For `Cn1nc(-c2c(-c3ccc(F)cc3)nc(N)n3nc(Cc4ncccc4F)nc23)ccc1=O` [Example 30, 6-(5-amino-7-(4-fluorophenyl)-2-((3-fluoropyridin-2-yl)methyl)-[1,2,4]triazolo[1,5-f]pyrimidin-8-yl)-2-methylpyridazin-3(2H)-one], in that order: 5.9 nM, 160 nM, 25 nM and 16 nM.
With `Cc1cc(-c2c(-c3ncco3)nc(N)n3nc(Cc4c(F)cccc4F)nc23)cc(C)n1` [Example 33, 2-[(2,6-difluorophenyl)methyl]-8-(2,6-dimethylpyridin-4-yl)-7-(1,3-oxazol-2-yl)-[1,2,4]triazolo[1,5-c]pyrimidin-5-amine], the IC50 on hA2a amounted to 18 nM; on hA2b, 10000 nM; on mA2a it was 109 nM; on hA1, 6940 nM.
Regarding `Cn1cc(-c2c(-c3ccc(F)cc3)nc(N)n3nc(Cc4cccc(N)n4)nc23)ccc1=O` [Example 35, 5-(5-amino-2-((6-aminopyridin-2-yl)methyl)-7-(4-fluorophenyl)-[1,2,4]triazolo[1,5-c]pyrimidin-8-yl)-1-methylpyridin-2(1H)-one], the IC50 at hA2a is 27 nM; at hA2b, 173 nM; at mA2a, 23 nM; on hA1, 35 nM.
Regarding `Nc1nc(-c2ccc(F)cc2)c(-c2ccc(=O)n(C3CC3)c2)c2nc(Cc3ncccc3F)nn12` [Example 36, 5-(5-amino-7-(4-fluorophenyl)-2-((3-fluoropyridin-2-yl)methyl)-[1,2,4]triazolo[1,5-c]pyrimidin-8-yl)-1-cyclopropylpyridin-2(1H)-one], the IC50 is 20 nM on hA2a, 408 nM at hA2b, 31 nM at mA2a and 45 nM at hA1.
For `Nc1cc(-c2c(-c3ccc(F)cc3)nc(N)n3nc(Cc4ncccc4F)nc23)ccn1` [Example 38, 8-(2-aminopyridin-4-yl)-7-(4-fluorophenyl)-2-((3-fIuoropyridin-2-yl)methyl)-[1,2,4]triazolo[1,5-c]pyrmidin-5-amine] the same measures were 41 nM, 38 nM, 263 nM and 8.6 nM.
For `Cn1cc(-c2c(-c3ccc(F)c(F)c3)nc(N)n3nc(Cc4ncccc4F)nc23)ccc1=O` [Example 39, 5-[5-amino-7-(3,4-difluorophenyl)-2-[(3-fluoropyridin-2-yl)methyl]-[1,2,4]triazolo[1,5-c]pyrimidin-8-yl]-1-methyl-1,2-dihydropyridin-2-one] the same measures were 18 nM, 235 nM, 39 nM and 15 nM.
On to `Cn1cc(-c2c(-c3cccc(F)c3)nc(N)n3nc(Cc4ncccc4F)nc23)ccc1=O` [Example 40, 5-(5-amino-7-(3-fluorophenyl)-2-((3-fluoropyridin-2-yl)methyl)-[1,2,4]triazolo[1,5-c]pyrimidin-8-yl)-1-methylpyridin-2(1H)-one], for which the IC50 on hA2a is 5.2 nM; at hA2b, 72 nM; at mA2a, 15 nM; on hA1, 18 nM.
For `Cn1cc(-c2c(-c3ccc(F)cc3)nc(N)n3nc(Cc4nccs4)nc23)ccc1=O` [Example 42, 5-[5-amino-7-(4-fluorophenyl)-2-[(1,3-thiazol-2-yl)methyl]-[1,2,4]triazolo[1,5-c]pyrimidin-8-yl]-1-methyl-1,2-dihydropyridin-2-one] the same measures were 7.9 nM, 206 nM, 13 nM and 6.6 nM.
On to `CNc1cc(-c2c(-c3ccc(F)cc3)nc(N)n3nc(Cc4ncccc4F)nc23)ccn1` [Example 43, 7-(4-fluorophenyl)-2-((3-fluoropyridin-2-yl)methyl)-8-(2-(methylamino)pyridin-4-yl)-[1,2,4]triazolo[1,5-c]pyrimidin-5-amine], for which the IC50 at hA2a is 19 nM; on hA2b, 12 nM; on mA2a, 41 nM; on hA1 it was 24 nM.
`Cn1cc(-c2c(-c3nccs3)nc(N)n3nc(Cc4c(F)cccc4F)nc23)ccc1=O` [Example 44, 5-(5-amino-2-(2,6-difluorobenzyl)-7-(thiazol-2-yl)-[1,2,4]triazolo[1,5-c]pyrimidin-8-yl)-l-methyl pyridin-2(lH)-one]: the half-inhibitory concentration (IC50) on hA2a is 4.3 nM; at hA2b, 97 nM; on mA2a it was 5.9 nM; at hA1 it was 13 nM.
